Positions count from the first letter of the chain named. Several values for one entry are separate records, joined by “and”; a condition that tells them apart may be missing. Equal values may be shown once. Read-outs that look alike come from different tables or passages of the source.
Columns and labels:
[1] = system: sinonasal epithelial cells; test: DAF-FM NO production with quinine in PAV/AVI heterozygote sinonasal epithelial cells; type: cell-based, human
T2R38 [2] = target: T1, T2R38 (Homo sapiens, UniProt P59533, A49P/I296V); test: Fluo-4 Ca2+ imaging in primary human sinonasal ALI cultures; type: cell-based; conditions: for Average peak Fluo-4 F/Fo after 5 min stimulation with C6HSL: 200 μM C6HSL
T1 construct: T2R38 is expressed in human upper airway epithelium; endogenous in cells; host or cells: primary human sinonasal epithelial cells, air-liquid interface cultures from surgical patients
T1 sequence (P59533 1-333 A49P/I296V): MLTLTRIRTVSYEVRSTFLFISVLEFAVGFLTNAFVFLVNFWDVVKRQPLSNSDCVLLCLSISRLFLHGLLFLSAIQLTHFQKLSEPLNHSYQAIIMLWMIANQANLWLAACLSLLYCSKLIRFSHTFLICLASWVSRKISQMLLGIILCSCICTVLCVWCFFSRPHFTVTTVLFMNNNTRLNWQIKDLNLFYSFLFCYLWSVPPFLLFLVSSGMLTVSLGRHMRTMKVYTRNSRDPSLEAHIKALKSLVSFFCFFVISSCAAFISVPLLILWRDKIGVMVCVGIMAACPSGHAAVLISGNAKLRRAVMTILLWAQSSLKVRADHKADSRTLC

T2R38 [3] = test: as above; type: cell-based
T2R38 [4] = target: T2, T2R38 (Homo sapiens, UniProt P59533, A262V); test: as above; type: cell-based; conditions: AVI/AVI
T2 construct: T2R38 is expressed in human upper airway epithelium; endogenous in cells; host or cells: primary human sinonasal epithelial cells, air-liquid interface cultures from surgical patients
T2 sequence (P59533 1-333 A262V): T1 sequence (P59533 1-333 A49P/I296V) with P49A, A262V, V296I

sinonasal ALI cultures [5] = type: cell-based, human
Pseudomonas aeruginosa [6] = test: Kill assay with ASL from stimulated sinonasal ALI cultures (CFU plating); type: cell-based
nasal epithelial cells = test: Fluo-4 calcium signaling with denatonium in nasal epithelial cells (sinonasal ALI cultures); type: cell-based, human; conditions: for Effect on denatonium induced calcium signaling: 2 mM sucrose or 1 mM sucralose
Pseudomonas aeruginosa [7] = system: Pseudomonas aeruginosa
T2R38 [8] = target: T1, T2R38; test: DAF-FM imaging of NO production in human sinonasal ALI cultures; type: cell-based; conditions: for DAF-FM fluorescence increase: 5 min, PAV/PAV
T2R38 [9] = test: as above; type: cell-based; conditions: for DAF-FM fluorescence increase: 5 min, PAV/AVI
beta-defensin 2 = test: Beta-defensin 2 secretion by sinonasal cultures; type: cell-based, human; conditions: denatonium- or absinthin-stimulated cultures
sinonasal ALI cultures [10] = test: Mucociliary transport velocity of fluorescent microspheres on sinonasal ALI cultures; type: cell-based, human
AVI-TAS2R38 = target: T3, AVI-TAS2R38 (Homo sapiens, UniProt P59533, A262V); test: Fluo-4 calcium mobilization in HEK293 cells expressing hTAS2R38 (AVI) and Gα16gustducin44; type: cell-based; conditions: 100 μM; AVI variant
T3 construct: first 45 amino acids of rat SSTR-3 (N); host or cells: HEK293 (peakRapid), transient transfection, pcDNA3.1(+)
T3 sequence (P59533 1-333 A262V): T1 sequence (P59533 1-333 A49P/I296V) with P49A, A262V, V296I

PAV-TAS2R38 = target: T4, PAV-TAS2R38 (Homo sapiens, UniProt P59533, A49P/I296V); test: Fluo-4 calcium mobilization in HEK293 cells expressing hTAS2R38 (PAV) and Gα16gustducin44; type: cell-based; conditions: 100 μM; PAV variant
T4 construct: first 45 amino acids of rat SSTR-3 (N); host or cells: HEK293 (peakRapid), transient transfection, pcDNA3.1(+)
T4 sequence (P59533 1-333 A49P/I296V): T1 sequence (P59533 1-333 A49P/I296V)

T2R38 [11] = target: T2, T2R38; test: DAF-FM imaging of NO production in human sinonasal ALI cultures; type: cell-based; conditions: 5 min, AVI/AVI

C=C[C@H]1C[N@@]2CC[C@H]1C[C@H]2[C@H](O)c1ccnc2ccc(OC)cc12 [quinine]
NO production (increase in DAF-FM fluorescence) ([1]; apical application, PAV/AVI heterozygote cells): stimulated a robust NO production

Nc1ncnc2c1ncn2[C@@H]1O[C@H](COP(=O)(O)OP(=O)(O)OP(=O)(O)O)[C@@H](O)[C@H]1O [ATP]
Peak Fluo-4 F/Fo during 10 μM ATP stimulation (T2R38 [2]; PAV/PAV): 2.96±0.08 | Peak Fluo-4 F/Fo during 10 μM ATP stimulation (T2R38 [2]; PAV/PAV+U73122): 2.82±0.1 | Peak F/Fo during stimulation with 1 μM ATP (T2R38 [3]; L-NAME (50 μM)): 2.0±0.26 | Peak F/Fo during stimulation with 1 μM ATP (T2R38 [3]; control (no L-NAME)): 1.9±0.21 | ATP-induced Ca2+ responses versus TAS2R38 genotype (T2R38 [3]; ATP 1 μM, PAV/PAV, PAV/AVI, AVI/AVI cultures): did not correlate with TAS2R38 genotype | Peak Fluo-4 F/Fo during 10 μM ATP stimulation (T2R38 [4]; 10 μM ATP): 2.90±0.09 | Peak CBF after ATP stimulation between genotypes (sinonasal ALI cultures [5]): not significantly different between cultures of different genotypes | Bactericidal response on stimulation of cells (Pseudomonas aeruginosa [6]; ATP stimulation): no bactericidal response was observed

COc1ccc(OC(C)C(=O)O)cc1 (centres unmarked) [lactisole]
Effect on glucose-mediated inhibition of bacterial kill (Pseudomonas aeruginosa [6]; lactisole 5 mM): reduced or reversed the glucose-mediated inhibition of bacterial kill | Effect on sucrose/sucralose inhibition of denatonium calcium signaling (nasal epithelial cells; sweet receptor antagonist): substantially eliminates the inhibition

OC[C@H]1O[C@H](O[C@]2(CCl)O[C@H](CCl)[C@@H](O)[C@@H]2O)[C@H](O)[C@@H](O)[C@H]1Cl [sucralose]
Effect on denatonium induced calcium signaling (nasal epithelial cells): inhibits denatonium induced calcium signaling

COC(=O)[C@@]1(OC)C[C@H]2O[C@]1(C)n1c3ccccc3c3c4c(c5c6ccccc6n2c5c31)C(=O)N(C)C4 [KT5823]
Effect on HSL-stimulated CBF increase (sinonasal ALI cultures [5]): blocked

COC(=O)[C@H](N)CCCN=C(N)N[N+](=O)[O-] [D-NAME]
Effect on HSL-stimulated CBF increase (sinonasal ALI cultures [5]): not

OC[C@H]1O[C@@](CO)(O[C@H]2O[C@H](CO)[C@@H](O)[C@H](O)[C@H]2O)[C@@H](O)[C@@H]1O [sucrose]
Effect on denatonium induced calcium signaling (nasal epithelial cells): inhibits denatonium induced calcium signaling

CCCCCC(=O)N[C@H]1CCOC1=O [C6HSL, N-Hexanoyl-L-homoserine lactone]
Average peak Fluo-4 F/Fo after 5 min stimulation with C6HSL (T2R38 [2]; PAV/PAV): 1.52±0.074 | Average peak Fluo-4 F/Fo after 5 min stimulation with C6HSL (T2R38 [2]; PAV/PAV+U73122): 1.10±0.09 | Average peak Fluo-4 F/Fo after 5 min stimulation with C6HSL (T2R38 [4]; 200 μM C6HSL): 1.21±0.09

COC(=O)[C@@H](N)CCCNC(=N)N[N+](=O)[O-] [L-NAME, L-N^G-Nitroarginine methyl ester]
Effect on quinine-stimulated NO production ([1]; L-NAME 20 μM): inhibited | % green (viable) PAO1 (Pseudomonas aeruginosa [7]): 90±2% | Effect on CBF increase in response to 6.25% PAO1 supernatant (sinonasal ALI cultures [5]): significantly inhibited | Effect on HSL-stimulated CBF increase (sinonasal ALI cultures [5]): blocked | Effect on C4HSL-induced NO production in taster cultures (T2R38 [8]): represses the NO production | Effect on NaSCN-activated DAF-FM fluorescence (T2R38 [9]): blocked

COc1ccc2c(c1)CC[C@@H]1[C@@H]2CC[C@]2(C)[C@@H](NCCCCCCN3C(=O)CCC3=O)CC[C@@H]12 [U73343]
Effect on beta-defensin secretion (beta-defensin 2): had no effect | Effect on C4HSL-induced NO production in taster cultures (T2R38 [8]; C4HSL 200 μM, U73122 5 μM, 20 min pre-incubation): had no effect on NO production

CCCCCCCCCC(=O)CC(=O)N[C@H]1CCOC1=O [C12HSL, N-3-oxo-dodecanoyl-L-homoserine lactone]
Increase in velocity (sinonasal ALI cultures [10]; 0.1 μM, PAV/PAV): 1.09±0.02 | Increase in velocity (sinonasal ALI cultures [10]; 1 μM, PAV/PAV): 1.23±0.04 | Increase in velocity (sinonasal ALI cultures [10]; 10 μM, PAV/PAV): 1.48±0.04 | Increase in velocity (sinonasal ALI cultures [10]; 100 μM, AVI/AVI): 1.14±0.03 | Increase in velocity (sinonasal ALI cultures [10]; 100 μM, PAV/PAV): 1.64±0.04 | Concentration required to stimulate a significant increase in mucociliary transport (sinonasal ALI cultures [10]; PAV/PAV cultures): 1 µM | Peak Fluo-4 fluorescence (ΔF/F) (AVI-TAS2R38): 3±2% | Peak Fluo-4 fluorescence (ΔF/F) (PAV-TAS2R38): 73±5% | Fluo-4 fluorescence after 10 min C12HSL stimulation (T2R38 [2]; 100 μM C12HSL, PAV/PAV): 1.52±0.08 | Fluo-4 fluorescence after 10 min C12HSL stimulation (T2R38 [3]; 100 μM C12HSL, PAV/AVI): 1.28±0.04 | Fluo-4 fluorescence after 10 min C12HSL stimulation (T2R38 [4]; 100 μM C12HSL): 1.14±0.01 | Peak CBF with C12HSL (sinonasal ALI cultures [5]): 1.25±0.05 and 1.03±0.01 | DAF-FM fluorescence increase (T2R38 [8]; 10 μM): 235±20 | DAF-FM fluorescence increase (T2R38 [8]; 100 μM): 351±65 | DAF-FM fluorescence increase (T2R38 [9]; 10 μM): 77±13 | DAF-FM fluorescence increase (T2R38 [9]; 100 μM): 109±25 | DAF-FM fluorescence increase (T2R38 [11]; 10 μM): 44±9 | DAF-FM fluorescence increase (T2R38 [11]; 100 μM): 64±16

Reference: US10881698B2, “Diagnosis and treatment for respiratory tract diseases” (THE TRUSTEES OF THE UNIVERSITY OF PENNSYLVANIA, priority 2012, dated 2021)
